Results taken from US20250388543A1, “HETEROARYL COMPOUNDS FOR THE TREATMENT OF PAIN” (VERTEX PHARMACEUTICALS INCORPORATED, priority 2022, published 2025).

Target: human NaV 1.8 (Homo sapiens, UniProt Q9Y5Y9)
Test: E-VIPR Assay Detecting and Measuring NaV Inhibition Properties
Assay type: cell-based
Settings: HEK cells expressing a truncated form of human NaV 1.8 with full channel activity; electrical stimulation, membrane-potential FRET dyes; 30 minutes compound incubation; read-out: measured IC50 value in the E-VIPR Assay
Text: E-VIPR Assay Detecting and Measuring NaV Inhibition Properties
Sodium ion channels are voltage-dependent proteins that can be activated by inducing membrane voltage changes by applying electric fields. The electrical stimulation instrument and methods of use, referred to as E-VIPR, are described in International Publication No. WO 2002/008748 A3 and C.-J. Huang et al. Characterization of voltage-gated sodium channel blockers by electrical stimulation and fluorescence detection of membrane potential, 24 Nature Biotech. 439-46 (2006), both of which are incorporated by reference in their entirety. The instrument comprises a microtiter plate handler, an optical system for exciting the coumarin dye while simultaneously recording the coumarin and oxonol emissions, a waveform generator, a current- or voltage-controlled amplifier, and parallel electrode pairs that are inserted into assay plate wells. Under integrated computer control, this instrument passes user-programmed electrical stimulus protocols to cells within the wells of the microtiter plate.
16-20 hours prior to running the assay on E-VIPR, HEK cells expressing a truncated form of human NaV 1.8 with full channel activity were seeded into microtiter 384-well plates, pre-coated with matrigel, at a density of 25,000 cells per well. 2.5-5% KIR2.1 BacMam virus was added to the final cell suspension before seeding into cell plates. HEK cells were grown in Dulbecco's Modified Eagle's Medium (DMEM) supplemented with 10% FBS (Fetal Bovine Serum, qualified; Sigma #F4135), 1% NEAA (Non-Essential Amino Acids, Gibco #11140), 1% HEPES (Gibco #15630), 1% Pen-Strep (Penicillin-Streptomycin; Gibco #15140) and 5 μg/ml Blasticidin (Gibco #R210-01). Cells were expanded in 5-layer CellSTACK culture chambers or cell culture flasks with vented caps, with 90-95% humidity and 5% CO2.
Reagents and Stock Solutions:
100 mg/mL Pluronic F-127 (Sigma #P2443), in dry DMSO
Compound Plates: Corning 384-well Polypropylene Round Bottom #3656
Cell Plates: 384-well tissue culture treated plates (Greiner #781091-2B)
2.5-5% KIR 2.1 Bacmam virus (produced in-house), prepared as described in Section 3.3 of J. A. Fornwald et al., Gene Expression in Mammalian Cells Using BacMam, a Modified Baculovirus System, 1350 Methods in Molecular Biology 95-116 (2016), the entire contents of which are incorporated by reference. The concentration used can be dependent on viral titer of each batch.
5 mM DiSBAC6(3), a voltage sensitive oxonol acceptor (CAS number 169211-44-3; 5-[3-(1,3-dihexylhexahydro-4,6-dioxo-2-thioxo-5-pyrimidinyl)-2-propen-1-ylidene]-1,3-dihexyldihydro-2-thioxo-4,6(1H,5H)-pyrimidinedione), in dry DMSO. The preparation of DiSBAC6(3) is analogous to that of DiSBAC4(3) as described in Voltage Sensing by Fluorescence Resonance Energy Transfer in Single Cells, Gonzalez, J. E. and Tsien, R. Y. (1995) Biophys. J. 69, 1272-1280.
5 mM CC2-DMPE, a commercially available membrane-bound coumarin phospholipid FRET donor (ThermoFisher Scientific catalog number K1017, CAS number 393782-57-5; tetradecanoic acid, 1,1′-[(1R)-1-[8-(6-chloro-7-hydroxy-2-oxo-2H-1-benzopyran-3-yl)-3-hydroxy-3-oxido-8-oxo-2,4-dioxa-7-aza-3-phosphaoct-1-yl]-1,2-ethanediyl]ester) was prepared in dry DMSO. See also, Improved indicators of cell membrane potential that use fluorescence resonance energy transfer, Gonzalez, J. E. and Tsien, R. Y. (1997) Chem. Biol. 4, 269-277.
Voltage Assay Background Suppression Compound (VABSC-1) is prepared in H2O (89-363 mM, range used to maintain solubility)
Human Serum (HS, Millipore #S1P1-01KL, or Sigma SLBR5469V and SLBR5470V as a 50%/50% mixture, for 25% assay final concentration)
Sodium Chloride 160 mM (9.35 g/L), Potassium Chloride, 4.5 mM (0.335 g/L), Glucose 10 mM (1.8 g/L), Magnesium Chloride (Anhydrous) 1 mM (0.095 g/L), Calcium Chloride 2 mM (0.222 g/L), HEPES 10 mM (2.38 g/L) in water. […]

Chain of human NaV 1.8 (Q9Y5Y9 126-1722 limits assumed): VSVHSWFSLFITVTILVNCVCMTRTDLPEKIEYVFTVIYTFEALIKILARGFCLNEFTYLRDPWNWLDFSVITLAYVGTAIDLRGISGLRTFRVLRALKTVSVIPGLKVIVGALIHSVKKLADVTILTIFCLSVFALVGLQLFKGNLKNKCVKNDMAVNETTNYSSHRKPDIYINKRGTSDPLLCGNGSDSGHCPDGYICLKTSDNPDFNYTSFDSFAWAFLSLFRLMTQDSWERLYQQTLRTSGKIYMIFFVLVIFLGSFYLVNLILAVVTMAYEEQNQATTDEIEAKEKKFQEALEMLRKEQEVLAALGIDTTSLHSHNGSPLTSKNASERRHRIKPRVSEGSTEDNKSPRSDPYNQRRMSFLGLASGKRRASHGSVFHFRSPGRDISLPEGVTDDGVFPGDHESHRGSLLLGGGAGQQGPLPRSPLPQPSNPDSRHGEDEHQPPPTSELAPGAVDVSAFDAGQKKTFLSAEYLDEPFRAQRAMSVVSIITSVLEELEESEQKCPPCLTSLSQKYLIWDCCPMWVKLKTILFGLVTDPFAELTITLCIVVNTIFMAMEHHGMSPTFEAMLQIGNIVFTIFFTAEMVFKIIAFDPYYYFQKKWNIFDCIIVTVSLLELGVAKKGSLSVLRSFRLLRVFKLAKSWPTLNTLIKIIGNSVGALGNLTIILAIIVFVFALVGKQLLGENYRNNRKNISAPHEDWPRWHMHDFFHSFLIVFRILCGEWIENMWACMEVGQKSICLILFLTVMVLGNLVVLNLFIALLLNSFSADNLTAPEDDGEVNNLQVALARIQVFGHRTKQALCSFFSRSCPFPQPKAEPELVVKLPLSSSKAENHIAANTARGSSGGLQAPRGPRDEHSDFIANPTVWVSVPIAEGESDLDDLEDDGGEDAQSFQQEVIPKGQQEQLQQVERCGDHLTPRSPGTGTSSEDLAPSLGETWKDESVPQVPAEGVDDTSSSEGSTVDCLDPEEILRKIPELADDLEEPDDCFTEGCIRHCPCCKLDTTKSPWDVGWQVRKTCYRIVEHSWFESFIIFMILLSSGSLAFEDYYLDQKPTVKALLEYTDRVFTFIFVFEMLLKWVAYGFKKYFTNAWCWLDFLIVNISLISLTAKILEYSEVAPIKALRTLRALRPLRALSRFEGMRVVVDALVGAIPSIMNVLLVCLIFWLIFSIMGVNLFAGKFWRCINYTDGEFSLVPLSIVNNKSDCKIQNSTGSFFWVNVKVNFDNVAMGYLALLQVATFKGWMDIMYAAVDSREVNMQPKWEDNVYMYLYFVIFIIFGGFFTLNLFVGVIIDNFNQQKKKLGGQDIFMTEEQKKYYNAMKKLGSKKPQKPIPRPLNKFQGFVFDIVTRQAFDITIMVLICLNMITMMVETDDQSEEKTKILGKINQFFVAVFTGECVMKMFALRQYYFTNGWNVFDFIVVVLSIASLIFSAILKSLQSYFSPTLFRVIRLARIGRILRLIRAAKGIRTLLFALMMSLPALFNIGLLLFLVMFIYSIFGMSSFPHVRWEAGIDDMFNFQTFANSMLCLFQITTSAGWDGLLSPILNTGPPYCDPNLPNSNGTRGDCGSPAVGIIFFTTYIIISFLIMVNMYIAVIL

Row | IC50 | SMILES
1 | ≥ 5000 nM | Cc1cc(=O)cc(-c2cc(C(F)(F)F)cnc2N2CCC(F)(F)CC2)[nH]1 [Compound 157, 2-[2-(4,4-difluoro-1-piperidyl)-5-(trifluoromethyl)-3-pyridyl]-6-methyl-1H-pyridin-4-one]
2 | ≥ 5000 nM | Cc1cc(C(C)(C)C)cc(Oc2ccc(F)cc2O)c1-c1cc(=O)cc[nH]1 [Compound 160, 2-[4-tert-butyl-2-(4-fluoro-2-hydroxy-phenoxy)-6-methyl-phenyl]-1H-pyridin-4-one]
3 | 500 to 2000 nM | Cc1[nH]c(-c2c(Oc3ccc(F)c(F)c3C)ncc(C(F)(F)F)c2C)cc(=O)c1-c1cn(C)c(C)n1 [Compound 162, 6-[2-(3,4-difluoro-2-methyl-phenoxy)-4-methyl-5-(trifluoromethyl)-3-pyridyl]-3-(1,2-dimethylimidazol-4-yl)-2-methyl-1H-pyridin-4-one]
4 | 2000 to 5000 nM | CCOC(=O)c1c(-c2cc3ccccc3nc2N2CCC[C@@H](OC)C2)[nH]c(C)c(OC)c1=O [Compound 224, ethyl 5-methoxy-2-[2-[(3R)-3-methoxy-1-piperidyl]-3-quinolyl]-6-methyl-4-oxo-1H-pyridine-3-carboxylate]
5 | 2000 to 5000 nM | CCOC(=O)c1c(-c2cc3ccccc3nc2N2CCCC(F)(F)C2)[nH]c(C)c(OC)c1=O [Compound 226, ethyl 2-[2-(3,3-difluoro-1-piperidyl)-3-quinolyl]-5-methoxy-6-methyl-4-oxo-1H-pyridine-3-carboxylate]
6 | 2000 to 5000 nM | CCOC(=O)c1c(-c2cc3ccccc3nc2N2CCCOCC2)[nH]c(C)c(OC)c1=O [Compound 227, ethyl 5-methoxy-6-methyl-2-[2-(1,4-oxazepan-4-yl)-3-quinolyl]-4-oxo-1H-pyridine-3-carboxylate]
7 | ≥ 5000 nM | CCOC(=O)c1c(-c2cc3ccccc3nc2N2C[C@@H]3CCO[C@@H]3C2)[nH]c(C)c(OC)c1=O [Compound 228, ethyl 2-[2-[(3aS,6aS)-2,3,3a,4,6,6a-hexahydrofuro[2,3-c]pyrrol-5-yl]-3-quinolyl]-5-methoxy-6-methyl-4-oxo-1H-pyridine-3-carboxylate]
8 | 2000 to 5000 nM | CCOC(=O)c1c(-c2cc3ccccc3nc2N2CCC(OC)CC2)[nH]c(C)c(OC)c1=O [Compound 229, ethyl 5-methoxy-2-[2-(4-methoxy-1-piperidyl)-3-quinolyl]-6-methyl-4-oxo-1H-pyridine-3-carboxylate]
9 | 2000 to 5000 nM | CCOC(=O)c1c(-c2cc3ccccc3nc2N2CCC[C@H](OC)C2)[nH]c(C)c(OC)c1=O [Compound 231, ethyl 5-methoxy-2-[2-[(3S)-3-methoxy-1-piperidyl]-3-quinolyl]-6-methyl-4-oxo-1H-pyridine-3-carboxylate]
10 | 500 to 2000 nM | CCOC(=O)c1c(-c2cc3ccccc3nc2N2CCC(C)(C)C2)[nH]c(C)c(OC)c1=O [Compound 238, ethyl 2-[2-(3,3-dimethylpyrrolidin-1-yl)-3-quinolyl]-5-methoxy-6-methyl-4-oxo-1H-pyridine-3-carboxylate]
11 | 2000 to 5000 nM | CCOC(=O)c1c(-c2cc3ccccc3nc2N2CCC(F)(F)C2)[nH]c(C)c(OC)c1=O [Compound 242, ethyl 2-[2-(3,3-difluoropyrrolidin-1-yl)-3-quinolyl]-5-methoxy-6-methyl-4-oxo-1H-pyridine-3-carboxylate]
12 | 2000 to 5000 nM | CCOC(=O)c1c(-c2cc3ccccc3nc2N2CC[C@H](OC)C2)[nH]c(C)c(OC)c1=O [Compound 244, ethyl 5-methoxy-2-[2-[(3S)-3-methoxypyrrolidin-1-yl]-3-quinolyl]-6-methyl-4-oxo-1H-pyridine-3-carboxylate]
13 | ≥ 5000 nM | CCOC(=O)c1c(-c2cc3ccccc3nc2N2CCOCC2)[nH]c(C)c(OC)c1=O [Compound 249, ethyl 5-methoxy-6-methyl-2-(2-morpholino-3-quinolyl)-4-oxo-1H-pyridine-3-carboxylate]
14 | 500 to 2000 nM | CCOC(=O)c1c(-c2cc3ccccc3nc2N2CCCCC2)[nH]c(C)c(OC)c1=O [Compound 250, ethyl 5-methoxy-6-methyl-4-oxo-2-[2-(1-piperidyl)-3-quinolyl]-1H-pyridine-3-carboxylate]
15 | ≥ 5000 nM | Cc1cc(=O)[nH]c(-c2nc(C(F)(F)F)ccc2N2CCCC(F)(F)CC2)n1 [Compound 252, 2-[3-(4,4-difluoroazepan-1-yl)-6-(trifluoromethyl)-2-pyridyl]-4-methyl-1H-pyrimidin-6-one]

Continued, molecule first:

Row | SMILES | IC50
16 | CCOC(=O)c1c(-c2cc(C(F)(F)F)ncc2N2CCCC(F)(F)CC2)[nH]c(C)c(C)c1=O [Compound 34, ethyl 2-[5-(4,4-difluoroazepan-1-yl)-2-(trifluoromethyl)-4-pyridyl]-5,6-dimethyl-4-oxo-1H-pyridine-3-carboxylate] | 2000 to 5000 nM
17 | CCOC(=O)c1c(C)[nH]c(-c2c(Oc3ccc(F)c(F)c3C)ncc(C(F)(F)F)c2C)c(C)c1=O [Compound 43, ethyl 6-[2-(3,4-difluoro-2-methyl-phenoxy)-4-methyl-5-(trifluoromethyl)-3-pyridyl]-2,5-dimethyl-4-oxo-1H-pyridine-3-carboxylate] | 500 to 2000 nM
18 | COc1c(Oc2cc(C(F)(F)F)c(F)cc2-c2cc(=O)nc(C)[nH]2)ccc(F)c1F [Compound 55, 6-[2-(3,4-difluoro-2-methoxy-phenoxy)-5-fluoro-4-(trifluoromethyl)phenyl]-2-methyl-1H-pyrimidin-4-one] | ≥ 5000 nM
19 | Cc1cc(=O)cc(-c2cc3ccccc3nc2OCc2ccccc2)[nH]1 [Compound 105, 2-(2-benzyloxy-3-quinolyl)-6-methyl-1H-pyridin-4-one] | ≥ 5000 nM
20 | Cc1cc(=O)cc(-c2cnc(C(F)(F)F)nc2C2CCC(F)(F)CC2)[nH]1 [Compound 109, 2-[4-(4,4-difluorocyclohexyl)-2-(trifluoromethyl)pyrimidin-5-yl]-6-methyl-1H-pyridin-4-one] | 2000 to 5000 nM
21 | Cc1c(Oc2nc3ccccc3cc2-c2cc(=O)cc[nH]2)ccc(F)c1F [Compound 115, 2-[2-(3,4-difluoro-2-methyl-phenoxy)-3-quinolyl]-1H-pyridin-4-one] | 500 to 2000 nM
22 | Cc1[nH]c(-c2ccc(C(C)(C)C)cc2OCC2CC2(F)F)cc(=O)c1C (stereo not drawn) [Compound 135, 6-[4-tert-butyl-2-[(2,2-difluorocyclopropyl)methoxy]phenyl]-2,3-dimethyl-1H-pyridin-4-one] | 500 to 2000 nM
23 | Cc1cc(=O)cc(-c2ccc(C(C)(C)C)cc2OCC2CC2(F)F)[nH]1 (stereo not drawn) [Compound 136] | 2000 to 5000 nM
24 | Cc1[nH]c(-c2cc(C(F)(F)F)ncc2C2CCC(C(F)(F)F)CC2)cc(=O)c1C (stereo not drawn) [Compound 142, 2,3-dimethyl-6-[2-(trifluoromethyl)-5-[4-(trifluoromethyl)cyclohexyl]-4-pyridyl]-1H-pyridin-4-one] | 500 to 2000 nM
25 | Cc1cc(=O)cc(-c2ccccc2OCC2CC2)[nH]1 [Compound 146, 2-[2-(cyclopropylmethoxy)phenyl]-6-methyl-1H-pyridin-4-one] | ≥ 5000 nM
26 | Cc1cc(=O)cc(-c2ccccc2C2CC2)[nH]1 [Compound 148, 2-(2-cyclopropylphenyl)-6-methyl-1H-pyridin-4-one] | ≥ 5000 nM
27 | Cc1cc(=O)cc(-c2cc(C(F)(F)F)cnc2N2CCCC(F)(F)CC2)[nH]1 [Compound 156, 2-[2-(4,4-difluoroazepan-1-yl)-5-(trifluoromethyl)-3-pyridyl]-6-methyl-1H-pyridin-4-one] | 500 to 2000 nM
